# Reference: PubChem BioAssay (NCI)
#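 Here, GI50 denotes the concentration required for 50% inhibition of growth. TGI is the concentration that stops growth completely.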
# What was measured:
# Assay in all cases: growth of human tumour cells (NCI), 384-well format
# SK-MEL-5 melanoma = tested on: SK-MEL-5 melanoma
# SF-539 CNS = tested on: SF-539 CNS
# ACHN renal = tested on: ACHN renal
# BT-549 breast = tested on: BT-549 breast
# MOLT-4 leukemia = tested on: MOLT-4 leukemia
# EKVX NSCLC = tested on: EKVX NSCLC
# T-47D breast = tested on: T-47D breast
# TK-10 renal = tested on: TK-10 renal
# OVCAR-8 ovarian = tested on: OVCAR-8 ovarian
# SK-OV-3 ovarian = tested on: SK-OV-3 ovarian
# PC-3 prostate = tested on: PC-3 prostate
# SF-268 CNS = tested on: SF-268 CNS
# UO-31 renal = tested on: UO-31 renal
# KM12 colon = tested on: KM12 colon
# DU-145 prostate = tested on: DU-145 prostate
# NCI/ADR-RES ovarian = tested on: NCI/ADR-RES ovarian
# MALME-3M melanoma = tested on: MALME-3M melanoma
# SF-295 CNS = tested on: SF-295 CNS
# OVCAR-4 ovarian = tested on: OVCAR-4 ovarian
# SR leukemia = tested on: SR leukemia
# RPMI-8226 leukemia = tested on: RPMI-8226 leukemia
# NCI-H226 lung = tested on: NCI-H226 lung
# U251 glioblastoma = tested on: U251 glioblastoma
# HCT-116 colon = tested on: HCT-116 colon
# HOP-92 NSCLC = tested on: HOP-92 NSCLC
# LOX IMVI melanoma = tested on: LOX IMVI melanoma
# MDA-MB-231 breast = tested on: MDA-MB-231 breast
structure (smiles),measurement,setting,value
C=CC(=O)N1CCCC(n2nc(-c3ccc(Oc4ccccc4)cc3)c3c(N)ncnc32)C1 (centres undefined),GI50,SK-MEL-5 melanoma,10.9 µM
same,TGI,SK-MEL-5 melanoma,23 µM
same,GI50,SF-539 CNS,11.3 µM
same,TGI,SF-539 CNS,23.4 µM
same,GI50,ACHN renal,0.655 µM
same,TGI,ACHN renal,17.3 µM
same,GI50,BT-549 breast,3.59 µM
same,TGI,BT-549 breast,13.3 µM
same,GI50,MOLT-4 leukemia,1.32 µM
same,TGI,MOLT-4 leukemia,5.02 µM
same,GI50,EKVX NSCLC,0.316 µM
same,TGI,EKVX NSCLC,16.7 µM
same,GI50,T-47D breast,0.0148 µM
same,TGI,T-47D breast,17.7 µM
same,GI50,TK-10 renal,0.479 µM
same,TGI,TK-10 renal,12.1 µM
same,GI50,OVCAR-8 ovarian,12.1 µM
same,TGI,OVCAR-8 ovarian,24.6 µM
same,GI50,SK-OV-3 ovarian,2.87 µM
same,TGI,SK-OV-3 ovarian,20.5 µM
same,GI50,PC-3 prostate,14.8 µM
same,TGI,PC-3 prostate,28.1 µM
same,GI50,SF-268 CNS,6.51 µM
same,TGI,SF-268 CNS,20 µM
same,GI50,UO-31 renal,6.11 µM
same,TGI,UO-31 renal,19.9 µM
same,GI50,KM12 colon,14.5 µM
same,TGI,KM12 colon,27.7 µM
same,GI50,DU-145 prostate,4.16 µM
same,TGI,DU-145 prostate,19.2 µM
same,GI50,NCI/ADR-RES ovarian,11.3 µM
same,TGI,NCI/ADR-RES ovarian,23.5 µM
same,GI50,MALME-3M melanoma,13.5 µM
same,TGI,MALME-3M melanoma,26.4 µM
same,GI50,SF-295 CNS,14.7 µM
same,TGI,SF-295 CNS,27.9 µM
same,GI50,OVCAR-4 ovarian,11.2 µM
same,TGI,OVCAR-4 ovarian,23.3 µM
same,GI50,SR leukemia,5.35 µM
same,TGI,SR leukemia,18.4 µM
same,GI50,RPMI-8226 leukemia,10.5 µM
same,TGI,RPMI-8226 leukemia,22.4 µM
same,GI50,NCI-H226 lung,6.21 µM
same,TGI,NCI-H226 lung,19.3 µM
same,GI50,U251 glioblastoma,14 µM
same,TGI,U251 glioblastoma,27.1 µM
same,GI50,HCT-116 colon,15.3 µM
same,TGI,HCT-116 colon,28.8 µM
same,GI50,HOP-92 NSCLC,13.6 µM
same,TGI,HOP-92 NSCLC,26.5 µM
same,GI50,LOX IMVI melanoma,4.43 µM
same,TGI,LOX IMVI melanoma,19.3 µM
same,GI50,MDA-MB-231 breast,16.2 µM
same,TGI,MDA-MB-231 breast,29.8 µM
